Laboratory results as given in patent US10980813B2, “Antifungal composition” (SEED RESEARCH INSTITUTE CO., LTD., priority 2017, dated 2021).
Values after ≈ are worked out from the molar mass of the structure shown.

What was measured:
Assay in all cases: Antifungal activity, MIC by disc (diffusion) method
A. fumigatus = format: cell-based; details: Aspergillus fumigatus, YMG agar, 24 hr at 28° C., read-out: MIC (minimum inhibitory concentration) A. fumigatus
Procedure: (§1) Measurement Method of Antifungal Activity in Various Compounds
(§2) The minimum inhibitory concentration (MIC) was measured by a disc method (diffusion method). The disc method is one kind of the diffusion method, and is a method in which filter paper (disc) impregnated with an antifungal substance at a given concentration is placed on an agar medium (test plate) coated with a test bacterium and cultivated. The disc absorbs water in the medium, diffuses the antifungal substance and forms a given concentration gradient. As a result, the test bacterium forms a growth inhibition zone (circle) in the periphery of the disc, and the level of sensitivity to the antifungal substance is determined from the diameter of the inhibition circle.
(§3) Using the aforementioned method, MIC of various compounds was measured.
(§4) i: In a 100 mL flask, 20 mL of YMG or Mueller Hinton medium is produced.
(§5) ii: A loopful of the test bacterium is dissolved in the medium.
(§6) iii: The medium is cultured at 200 rpm for 24 hr in a rotary shaker set to 28° C.
(§7) i: In a 300 mL flask, 100 mL of YMG or Mueller Hinton agar medium (low melting point agar) is produced.
(§8) ii: After cooling to 37° C.-40° C., preculture medium (1 mL) is added and the mixture is agitated.
(§9) iii: The mixture is dispensed to a square petri dish (size: 100*150*17 mm) by 20 mL each.
(§10) iv: The dish is stood at room temperature until the agar is solidified.
(§11) i: The compound is diluted in ½ dilution series in 10 stages (timely changed according to compound), 50 μL of solution/pulp at each dilution stage is produced, the organic solvent is dried at room temperature and placed on a test plate.
(§12) ii: After culturing T. rubrum for 48 hr and other test bacteria for 24 hr at 28° C. in an incubator, the size of the inhibition circle was measured.
(§13) The medium composition for culture which was used for the aforementioned preculture is shown below.
(§14) [Medium Compositions for Preculture and Test Plate]
(§15) <<YMG Medium>>: For Fungus
(§16) Agar, powder 0.8% * added only when producing test plate

T. mentagrophytes = format: cell-based; details: Trichophyton mentagrophytes, YMG agar, 24 hr at 28° C., read-out: MIC (minimum inhibitory concentration) T. mentagrophytes
Procedure: as §1, §2, §3, §4, §5, §6, §7, §8, §9, §10, §11, §12, §13, §14, §15, §16

T. rubrum = format: cell-based; details: Trichophyton rubrum, YMG agar, 48 hr at 28° C., read-out: MIC (minimum inhibitory concentration) T. rubrum
Procedure: as §1, §2, §3, §4, §5, §6, §7, §8, §9, §10, §11, §12, §13, §14, §15, §16

Saccharomyces = format: cell-based; details: YMG agar, 24 hr at 28° C., read-out: MIC (minimum inhibitory concentration) Saccharomyces
Procedure: as §1, §2, §3, §4, §5, §6, §7, §8, §9, §10, §11, §12, §13, §14, §15, §16

C. parapsilosis = format: cell-based, Candida parapsilosis; details: Lodderomyces parapsilosis, YMG agar, 24 hr at 28° C., read-out: MIC (minimum inhibitory concentration) C. parapsilosis
Procedure: as §1, §2, §3, §4, §5, §6, §7, §8, §9, §10, §11, §12, §13, §14, §15, §16

Row | MIC (A. fumigatus) [µg/mL] | MIC (T. mentagrophytes) [µg/mL] | MIC (T. rubrum) [µg/mL] | MIC (Saccharomyces) [µg/mL] | MIC (C. parapsilosis) [µg/mL] | SMILES
1 | 8 (≈ 41.8 µM) | 2 (≈ 10.5 µM) | 2 (≈ 10.5 µM) | 8 (≈ 41.8 µM) | 8 (≈ 41.8 µM) | CC1=C(C)C2(C)ON2S(=O)(=O)O1 (stereo not drawn) [II-2a]
2 | 16 (≈ 90.8 µM) | 2 (≈ 11.4 µM) | 2 (≈ 11.4 µM) | 16 (≈ 90.8 µM) | 16 (≈ 90.8 µM) | CC1=CC2(C)ON2S(=O)(=O)N1 (stereo not drawn) [II-2b]
3 | 8 (≈ 33.6 µM) | 2 (≈ 8.39 µM) | 2 (≈ 8.39 µM) | 8 (≈ 33.6 µM) | 8 (≈ 33.6 µM) | CC1=CC2(c3ccccc3)ON2S(=O)(=O)N1 (stereo not drawn) [II-2c]
4 | 8 (≈ 31.7 µM) | 2 (≈ 7.93 µM) | 2 (≈ 7.93 µM) | 8 (≈ 31.7 µM) | 8 (≈ 31.7 µM) | CC1=C(C)C2(c3ccccc3)ON2S(=O)(=O)N1 (stereo not drawn) [II-2d]
5 | 4 (≈ 24.2 µM) | 2 (≈ 12.1 µM) | 2 (≈ 12.1 µM) | 4 (≈ 24.2 µM) | 4 (≈ 24.2 µM) | CC1OS(=O)(=O)N2OC12C (stereo not drawn) [II-3a]
6 | 4 (≈ 20.7 µM) | 2 (≈ 10.4 µM) | 2 (≈ 10.4 µM) | 4 (≈ 20.7 µM) | 4 (≈ 20.7 µM) | CCC1OS(=O)(=O)N2OC12CC (stereo not drawn) [II-3b]
7 | 8 (≈ 37.5 µM) | 2 (≈ 9.38 µM) | 2 (≈ 9.38 µM) | 8 (≈ 37.5 µM) | 8 (≈ 37.5 µM) | O=S1(=O)OCC2(c3ccccc3)ON21 (stereo not drawn) [II-3c]
8 | 8 (≈ 32.3 µM) | 2 (≈ 8.08 µM) | 2 (≈ 8.08 µM) | 8 (≈ 32.3 µM) | 8 (≈ 32.3 µM) | O=S1(=O)OCC2(c3ccc(Cl)cc3)ON21 (stereo not drawn) [II-3d]
9 | 8 (≈ 24.7 µM) | 2 (≈ 6.16 µM) | 2 (≈ 6.16 µM) | 8 (≈ 24.7 µM) | 8 (≈ 24.7 µM) | CCCCCCCCN1CC2(c3ccccc3)ON2S1(=O)=O (stereo not drawn) [II-3e]
10 | 8 (≈ 54 µM) | 2 (≈ 13.5 µM) | 2 (≈ 13.5 µM) | 8 (≈ 54 µM) | 8 (≈ 54 µM) | CC1=NS(=O)(=O)N2OC12 (stereo not drawn) [II-4a]
11 | 16 (≈ 98.7 µM) | 4 (≈ 24.7 µM) | 4 (≈ 24.7 µM) | 16 (≈ 98.7 µM) | 16 (≈ 98.7 µM) | CC1=NS(=O)(=O)N2OC12C (stereo not drawn) [II-4b]
12 | 8 (≈ 31.2 µM) | 2 (≈ 7.8 µM) | 2 (≈ 7.8 µM) | 8 (≈ 31.2 µM) | 8 (≈ 31.2 µM) | O=S1(=O)N=C(CCc2ccc(F)cc2)C2ON21 (stereo not drawn) [II-4c]
13 | 8 (≈ 29.3 µM) | 2 (≈ 7.33 µM) | 2 (≈ 7.33 µM) | 8 (≈ 29.3 µM) | 8 (≈ 29.3 µM) | O=S1(=O)N=C(CCc2ccc(Cl)cc2)C2ON21 (stereo not drawn) [II-4d]
14 | 8 (≈ 46.2 µM) | 2 (≈ 11.6 µM) | 2 (≈ 11.6 µM) | 8 (≈ 46.2 µM) | 8 (≈ 46.2 µM) | O=S1(=O)N2OC2c2nccn21 (stereo not drawn) [II-5a]
15 | 16 (≈ 92.9 µM) | 4 (≈ 23.2 µM) | 4 (≈ 23.2 µM) | 16 (≈ 92.9 µM) | 16 (≈ 92.9 µM) | O=S1(=O)N2OC2c2cccn21 (stereo not drawn) [II-5b]
16 | 4 (≈ 16 µM) | 1 (≈ 4 µM) | 1 (≈ 4 µM) | 4 (≈ 16 µM) | 4 (≈ 16 µM) | O=S1(=O)N=C2C(=COc3ccccc32)C2ON21 (stereo not drawn) [II-6a]
17 | 4 (≈ 14.9 µM) | 1 (≈ 3.73 µM) | 1 (≈ 3.73 µM) | 4 (≈ 14.9 µM) | 4 (≈ 14.9 µM) | O=S1(=O)N=C2C(=COc3ccc(F)cc32)C2ON21 (stereo not drawn) [II-6b]
18 | 4 (≈ 14.1 µM) | 1 (≈ 3.51 µM) | 1 (≈ 3.51 µM) | 4 (≈ 14.1 µM) | 4 (≈ 14.1 µM) | O=S1(=O)N=C2C(=COc3ccc(Cl)cc32)C2ON21 (stereo not drawn) [II-6c]
